For data set [1], the target named is T1, Glucagon-like peptide 2 receptor (Homo sapiens, UniProt O95838).
T1 sequence (O95838 whole entry): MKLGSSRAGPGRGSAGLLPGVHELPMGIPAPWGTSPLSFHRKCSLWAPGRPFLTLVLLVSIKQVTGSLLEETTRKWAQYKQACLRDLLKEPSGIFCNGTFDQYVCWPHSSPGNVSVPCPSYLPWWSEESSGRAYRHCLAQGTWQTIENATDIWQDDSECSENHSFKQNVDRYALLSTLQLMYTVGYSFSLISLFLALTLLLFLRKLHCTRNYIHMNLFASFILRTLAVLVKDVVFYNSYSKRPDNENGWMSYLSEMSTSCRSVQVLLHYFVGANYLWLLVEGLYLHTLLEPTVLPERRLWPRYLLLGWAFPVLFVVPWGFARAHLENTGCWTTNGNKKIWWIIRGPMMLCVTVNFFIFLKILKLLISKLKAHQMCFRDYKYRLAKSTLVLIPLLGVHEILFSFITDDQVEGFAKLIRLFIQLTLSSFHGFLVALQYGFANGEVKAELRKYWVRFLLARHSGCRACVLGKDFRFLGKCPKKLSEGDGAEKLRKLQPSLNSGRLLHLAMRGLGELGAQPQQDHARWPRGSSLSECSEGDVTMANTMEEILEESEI
The data set is described as follows: Agonist activity at N-terminal HA-tagged human GLP-2R expressed in CHO cells co-transfected with pcDNA3.0 assessed as effect on cAMP accumulation incubated for 30 mins by microplate reader analysis. Format: functional, cell-based. In general terms: Changes in cAMP serve as a functional read-out for many G protein-coupled receptors.

For data set [2], the target named is T2, Glucagon-like peptide 1 receptor (Homo sapiens, UniProt P43220). Nature of the data set: Agonist activity at N-terminal hemagglutinin-tagged human GLP-1R expressed in CHO cells co-transfected with pcDNA3.0 assessed as increase in intracellular cAMP accumulation incubated for 30 mins by microplate reader analysis. Format: functional, cell-based.
In a further data set the target is Glucagon receptor (Homo sapiens, UniProt P47871). The data set is described as follows: Agonist activity at N-terminal HA-tagged human GCGR expressed in CHO cells co-transfected with pcDNA3.0 assessed as effect on cAMP accumulation incubated for 30 mins by microplate reader analysis. Format: functional, cell-based.
In data set [3] the test system is Rattus norvegicus. Nature of the data set: Antidiabetic activity in human GLP-1R knockin Sprague-Dawley rat model assessed as increase in rate of insulin secretion at 1 to 10 mg/kg, po pretreated with compound for 15 mins by IPGTT analysis. Particulars: dose 1-10 mg/kg. Format: functional, organism-based.
Data set [4] concerns Rattus norvegicus. Nature of the data set: Antidiabetic activity in human GLP-1R knockin Sprague-Dawley rat model assessed as increase in rate of glucose disappearance at 1 to 10 mg/kg, po pretreated with compound for 15 mins by IPGTT analysis. Format: functional, organism-based. Particulars: dose 1-10 mg/kg.
In data set [5] the target is T2, Glucagon-like peptide 1 receptor. The data set is described as follows: Agonist activity at human GLP-1R expressed in HEK293 cells assessed as beta-arrestin1 recruitment incubated for 5 mins by bioluminescence based Envision multiplate reader analysis. Format: functional, cell-based. On the technique in general: Recruitment of arrestin is a read-out of receptor activation apart from second messengers.

Data set [6] is described as follows: Cmax in Sprague-Dawley rat at 5 mg/kg, po measured up to 24 hrs by LC-MS/MS analysis. Format: ADME, organism-based. Particulars: in vivo.
Data set [7] is described as follows: Fraction of the dose absorbed in Sprague-Dawley rat at 5 mg/kg, po measured up to 24 hrs by LC-MS/MS analysis. Format: ADME, organism-based. Particulars: in vivo, read-out: Fabs.
The nature of the next data set: in vivo. Particulars: Sprague-Dawley, rat, po, 5 mg/kg.
The target in data set [8] is T2, Glucagon-like peptide 1 receptor. The data set is described as follows: Agonist activity at human GLP-1R expressed in HEK293 cells assessed as beta-arrestin2 recruitment incubated for 5 mins by bioluminescence based Envision multiplate reader analysis. Format: functional, cell-based.
Data set [9] deals with T3, Gastric inhibitory polypeptide receptor (Homo sapiens, UniProt P48546).
T3 sequence (P48546 whole entry): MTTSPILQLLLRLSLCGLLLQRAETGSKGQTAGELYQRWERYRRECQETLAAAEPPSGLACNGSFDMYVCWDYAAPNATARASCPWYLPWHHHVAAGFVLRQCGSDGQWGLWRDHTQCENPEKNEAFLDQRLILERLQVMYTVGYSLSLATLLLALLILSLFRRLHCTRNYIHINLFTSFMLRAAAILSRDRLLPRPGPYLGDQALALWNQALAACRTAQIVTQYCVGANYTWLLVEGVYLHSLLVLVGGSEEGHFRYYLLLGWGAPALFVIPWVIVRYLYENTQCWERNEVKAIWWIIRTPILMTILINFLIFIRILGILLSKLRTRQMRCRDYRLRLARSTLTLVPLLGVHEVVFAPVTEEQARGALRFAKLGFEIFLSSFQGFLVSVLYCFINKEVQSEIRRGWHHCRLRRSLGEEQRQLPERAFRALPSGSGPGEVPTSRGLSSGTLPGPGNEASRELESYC
Nature of the data set: Agonist activity at N-terminal HA-tagged human GIPR expressed in CHO cells co-transfected with pcDNA3.0 assessed as effect on cAMP accumulation incubated for 30 mins by microplate reader analysis. Format: functional, cell-based.

Data set [10] concerns the target T2, Glucagon-like peptide 1 receptor. The data set is described as follows: Binding affinity to GLP-1R (unknown origin) at 500 nM measured at 30 to 120 mins by HTRF analysis relative to control. The settings on record: time 30-120 min. Background: TR-FRET usually uses a lanthanide donor and a delayed reading to cut background.
Data set [11] can be described thus: Half life in Sprague-Dawley rat at 5 mg/kg, po measured up to 24 hrs by LC-MS/MS analysis. Format: ADME, organism-based. Particulars: in vivo.
In data set [12] the target is T4, hERG (KCNH2) (Homo sapiens, UniProt Q12809). The data set is described as follows: Inhibition of hERG at 10 uM at -80 mV holding potential by whole-cell patch clamp analysis relative to control. Format: toxicity.
The target in data set [13] is T2, Glucagon-like peptide 1 receptor. The data set is described as follows: Binding affinity to GLP-1R (unknown origin) at 5000 nM measured at 30 to 120 mins by HTRF analysis relative to control. Particulars: filed as agonist, time 30-120 min.
Data set [14] can be described thus: AUC (0 to infinity) in Sprague-Dawley rat at 5 mg/kg, po measured up to 24 hrs by LC-MS/MS analysis. Format: ADME, organism-based. Particulars: in vivo.
The target of data set [15] is T4, hERG (KCNH2). Nature of the data set: Inhibition of hERG at 1 uM at -80 mV holding potential by whole-cell patch clamp analysis relative to control. Format: toxicity.
A short description of data set [16]: Observed apparent oral clearance in Sprague-Dawley rat at 5 mg/kg, po measured up to 24 hrs by LC-MS/MS analysis. Format: ADME, organism-based. Particulars: in vivo.
Data set [17] in a line: Induction of insulin release in human EndoC-betaH5 cells incubated for 1 hr by ELISA analysis. Particulars: EndoC-betaH5, 1 h. Format: functional, cell-based.
Data set [18] has as its system Rattus norvegicus. Nature of the data set: Antidiabetic activity in human GLP-1R knockin po dosed Sprague-Dawley rat model assessed as increase in glucose-simulated insulin secretion pretreated with compound for 15 mins followed by D-glucose administration and measured after 30 mins by ELISA analysis. Particulars: dose 1-10 mg/kg, time 45.0 min. Format: functional, organism-based.

Calls of active or inactive are those of the source. No cut-off for these calls is given here.

A word on the EC50: it is the midpoint of the concentration-response curve. As usually defined, the Cmax is the highest concentration seen after dosing. Usually Tmax stands for the time from dosing to the highest level. What is called half-life is the time in which the quantity being followed falls by half. What is called inhibition is the share of the control response that was lost under treatment. Read a low inhibition as little suppression. By AUC(0-inf) is commonly meant the area under the concentration-time curve extrapolated to infinity. A high value points to high exposure. The CL/F is the apparent clearance, not corrected for the fraction that reaches the circulation.

T2 sequence (P43220 whole entry): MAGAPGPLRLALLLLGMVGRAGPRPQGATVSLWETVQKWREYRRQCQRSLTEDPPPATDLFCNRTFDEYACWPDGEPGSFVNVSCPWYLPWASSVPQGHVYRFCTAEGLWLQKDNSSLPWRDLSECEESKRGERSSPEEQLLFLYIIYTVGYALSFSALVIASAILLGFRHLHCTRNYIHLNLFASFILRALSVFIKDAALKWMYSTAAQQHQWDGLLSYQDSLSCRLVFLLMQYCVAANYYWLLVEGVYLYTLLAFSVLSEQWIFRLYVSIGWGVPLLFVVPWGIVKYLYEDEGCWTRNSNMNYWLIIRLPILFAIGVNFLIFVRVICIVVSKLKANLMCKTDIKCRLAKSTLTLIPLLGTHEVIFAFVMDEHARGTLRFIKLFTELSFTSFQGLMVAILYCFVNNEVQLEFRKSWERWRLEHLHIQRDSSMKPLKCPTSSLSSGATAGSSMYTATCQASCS
T4 sequence (Q12809 whole entry): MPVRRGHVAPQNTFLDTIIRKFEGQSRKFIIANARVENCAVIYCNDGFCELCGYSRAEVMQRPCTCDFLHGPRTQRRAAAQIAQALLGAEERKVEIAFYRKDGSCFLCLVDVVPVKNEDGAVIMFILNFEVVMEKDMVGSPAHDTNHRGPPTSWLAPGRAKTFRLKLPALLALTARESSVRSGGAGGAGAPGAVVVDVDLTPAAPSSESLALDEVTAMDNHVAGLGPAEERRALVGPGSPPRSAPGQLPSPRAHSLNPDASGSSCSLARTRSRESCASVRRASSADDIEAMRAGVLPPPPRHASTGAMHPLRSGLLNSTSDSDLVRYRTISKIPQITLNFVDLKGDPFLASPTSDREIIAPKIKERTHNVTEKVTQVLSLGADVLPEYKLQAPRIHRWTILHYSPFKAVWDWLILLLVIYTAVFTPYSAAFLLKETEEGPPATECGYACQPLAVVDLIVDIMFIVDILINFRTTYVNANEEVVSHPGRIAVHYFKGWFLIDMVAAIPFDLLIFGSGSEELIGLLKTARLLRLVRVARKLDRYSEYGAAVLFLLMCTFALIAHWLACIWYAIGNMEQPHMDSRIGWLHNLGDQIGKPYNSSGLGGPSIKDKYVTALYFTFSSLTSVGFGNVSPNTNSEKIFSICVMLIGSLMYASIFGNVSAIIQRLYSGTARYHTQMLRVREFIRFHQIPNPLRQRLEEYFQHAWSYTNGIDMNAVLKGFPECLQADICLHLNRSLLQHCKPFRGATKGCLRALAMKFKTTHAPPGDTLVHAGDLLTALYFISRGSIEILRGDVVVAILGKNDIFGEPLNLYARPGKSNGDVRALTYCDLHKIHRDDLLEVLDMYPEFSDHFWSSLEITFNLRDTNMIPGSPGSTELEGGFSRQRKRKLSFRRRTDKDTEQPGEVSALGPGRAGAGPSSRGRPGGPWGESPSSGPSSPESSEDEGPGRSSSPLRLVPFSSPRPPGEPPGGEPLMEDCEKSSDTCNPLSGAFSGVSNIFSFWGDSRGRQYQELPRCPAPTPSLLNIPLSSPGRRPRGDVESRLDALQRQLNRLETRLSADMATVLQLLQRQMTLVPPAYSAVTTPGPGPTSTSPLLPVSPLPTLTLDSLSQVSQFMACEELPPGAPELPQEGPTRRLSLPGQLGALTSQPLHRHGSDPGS
Glucagon receptor, sequence (P47871 whole entry): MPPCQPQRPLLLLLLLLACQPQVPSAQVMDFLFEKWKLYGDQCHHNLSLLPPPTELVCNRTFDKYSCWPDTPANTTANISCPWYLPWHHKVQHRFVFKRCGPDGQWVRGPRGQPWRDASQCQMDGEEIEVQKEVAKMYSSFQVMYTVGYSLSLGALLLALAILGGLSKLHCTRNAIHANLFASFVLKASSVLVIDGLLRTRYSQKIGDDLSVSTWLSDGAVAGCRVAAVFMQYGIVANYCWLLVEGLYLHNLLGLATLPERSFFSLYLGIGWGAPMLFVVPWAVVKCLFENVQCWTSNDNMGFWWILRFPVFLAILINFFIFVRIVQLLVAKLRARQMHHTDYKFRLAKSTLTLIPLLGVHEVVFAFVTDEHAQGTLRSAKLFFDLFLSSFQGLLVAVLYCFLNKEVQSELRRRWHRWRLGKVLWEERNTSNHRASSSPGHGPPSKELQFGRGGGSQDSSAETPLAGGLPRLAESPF

For `O=C(O)c1ccc2nc(CN3CC=C(c4cccc(OCc5ccc(C6CC(F)(F)C6)cc5F)n4)CC3)n(C[C@@H]3CCO3)c2n1`, the concentration for a half-maximal effect (EC50) in data set [1] is above 20000 nM; in data set [2], 0.048 nM; at Glucagon receptor, above 20000 nM; in data set [5], 2020 nM; in data set [8], 864 nM; in data set [9], above 20000 nM. Besides, in data set [17], a half-maximal effect (EC50) was put at 22.7 nM. The result with Rattus norvegicus [3] and with Rattus norvegicus [4] was Active. The compound also registered a Cmax in data set [6] of 256 ng/mL. Also, the Fa at 24 h in [7] was found to be 54.2%. Also, the Tmax at 24 h in “in vivo” worked out at 2.67 h. For the same compound, the figures for the Activity (in data set [10]; in data set [13]; with Rattus norvegicus [18]) were 35.5%, 71.2% and “Dose-dependent-effect”, respectively. This compound gave a half-life in [11] of 3.32 h. At hERG (KCNH2) [12], 10 µM produced 37.6% inhibition. The same compound showed a total exposure AUC(0-inf) in data set [14] of 1380 ng·h/mL. At hERG (KCNH2) [15], this compound came in with an inhibition at 1 µM of 0.6%. Besides, the apparent clearance CL/F in data set [16] is 65.8 mL/min/kg.

The record behind these values is ChEMBL document CHEMBL6109144, “Discovery of New Difluorocyclobutyl Derivatives as Effective Glucagon-Like Peptide-1 Receptor Agonists with Reduced hERG Inhibitory Activities” (J Med Chem, 2025).
